Where two headings read alike, the source gives them in different places.
Legend:
[1] = DPPH^•-scavenging activity (Blois method)
Text: Radical-scavenging assays are often used for screening the antioxidant properties of pure or novel synthesized compounds. For this purpose, the most commonly and widely used radical scavenging method is the DPPH radical-scavenging assay.

[2] = ABTS^•+-scavenging activity
Text: A ABTS^•+-scavenging assay measured the ability of pure compounds to decrease the color, reacting directly with the ABTS radical.

[3] = DMPD^•+-scavenging activity
Text: In this study, DMPD radicals were generated in situ by oxidation with ferric chloride. […] (as a biologically active and bright yellow chemical produced by Curcuma longa species).

[4] = design: method as in ref 3 (usnic acid), 46 (caffeic acid), 47 (uric acid), 48 (tannic acid), 49 (caffeic acid phenethyl ester); concentration or dose not given beside the values; details: at similar concentrations; ref 3 (usnic acid), 46 (caffeic acid), 47 (uric acid), 48 (tannic acid), 49 (caffeic acid phenethyl ester); cited from earlier work
[5] = biological target: T1, carbonic anhydrase II isoenzyme (hCA II) (Homo sapiens, UniProt P00918); test: CA II inhibition (esterase activity); assay type: biochemical
T1 construct: Human erythrocytes were used as the CA II isoenzyme source; from tissue; host or cells: human erythrocytes
Procedure: Human erythrocytes were used as the CA II isoenzyme source. Fresh human erythrocytes were centrifuged at 10,000× g for 30 min. Then, they were precipitated and the serum was separated and adjusted with solid Tris to pH 8.7 [99]. The CA II isoenzyme was purified using Sepharose-4B-L-Tirozyne-sulfanylamide affinity column chromatography [100]. […] During the purification and inhibition process of hCA II, esterase activity was examined.

[6] = biological target: T2, acetylcholinesterase (AChE) (Electrophorus electricus, UniProt O42275); test: biochemical
[7] = biological target: α-glycosidase; test: α-Glycosidase inhibition (p-NPG substrate); assay type: biochemical; details: read-out: IC50 (nM) α-Gly
Procedure: The absorbances of samples were measured at 405 nm. One α-glycosidase unit was the enzyme quantity, which catalyzes […] of substrate per minute (pH 7.4).
Lineweaver–Burk graphs were used for the determination of Ki values and other inhibition parameters.

[8] = biological target: butyrylcholinesterase (BChE) (Equus caballus, UniProt P81908); test: biochemical
[9] = design: concentration or dose not given beside the values; details: at similar concentrations; ref 3 (usnic acid), 50 (eugenol), 51 (resveratrol), 52 (taxifolin), 53 (olivetol); cited from earlier work
[10] = biological target: T2, acetylcholinesterase (AChE); details: literature values, cited from earlier work
[11] = ref 53 (olivetol), 59 (taxifolin)

T2 sequence (O42275 24-633): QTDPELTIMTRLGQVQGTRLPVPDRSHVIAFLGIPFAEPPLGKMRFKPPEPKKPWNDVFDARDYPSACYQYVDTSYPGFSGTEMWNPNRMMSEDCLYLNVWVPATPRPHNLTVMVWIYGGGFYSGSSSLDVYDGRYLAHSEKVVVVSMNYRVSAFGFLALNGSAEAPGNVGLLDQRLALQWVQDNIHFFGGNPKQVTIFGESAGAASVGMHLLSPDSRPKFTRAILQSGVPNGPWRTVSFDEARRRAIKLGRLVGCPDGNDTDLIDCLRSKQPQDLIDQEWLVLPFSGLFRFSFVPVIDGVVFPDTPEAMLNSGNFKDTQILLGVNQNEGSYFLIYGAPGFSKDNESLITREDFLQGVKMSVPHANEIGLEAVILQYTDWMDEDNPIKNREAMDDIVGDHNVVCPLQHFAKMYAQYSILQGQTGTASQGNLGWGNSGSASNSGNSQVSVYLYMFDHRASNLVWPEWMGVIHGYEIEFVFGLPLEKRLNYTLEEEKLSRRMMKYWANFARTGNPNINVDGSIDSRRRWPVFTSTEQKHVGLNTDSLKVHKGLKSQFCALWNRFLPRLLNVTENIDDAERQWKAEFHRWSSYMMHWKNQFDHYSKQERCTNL
Chain of butyrylcholinesterase (BChE) (P81908 whole entry): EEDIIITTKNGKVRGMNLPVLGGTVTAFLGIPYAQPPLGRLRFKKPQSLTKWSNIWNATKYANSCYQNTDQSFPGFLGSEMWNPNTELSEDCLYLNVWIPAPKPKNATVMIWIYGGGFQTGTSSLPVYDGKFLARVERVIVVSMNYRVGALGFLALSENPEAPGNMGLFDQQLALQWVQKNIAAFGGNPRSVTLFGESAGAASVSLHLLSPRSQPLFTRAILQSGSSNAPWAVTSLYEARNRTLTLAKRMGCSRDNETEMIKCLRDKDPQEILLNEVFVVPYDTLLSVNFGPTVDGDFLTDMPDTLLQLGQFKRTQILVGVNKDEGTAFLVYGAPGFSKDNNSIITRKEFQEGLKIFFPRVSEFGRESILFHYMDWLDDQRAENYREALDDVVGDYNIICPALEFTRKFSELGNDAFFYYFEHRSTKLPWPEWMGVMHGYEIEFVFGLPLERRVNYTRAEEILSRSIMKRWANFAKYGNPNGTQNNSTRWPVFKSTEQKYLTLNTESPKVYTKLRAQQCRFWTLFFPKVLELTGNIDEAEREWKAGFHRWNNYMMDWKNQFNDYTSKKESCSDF

Molecule | DPPH^• Scavenging IC50 [1] [µg/mL] | ABTS^•+ Scavenging IC50 [2] [µg/mL] | DMPD^•+ Scavenging IC50 [3] [µg/mL] | absorbance values for Fe^3+-reducing activity [4] | absorbance values for Cu^2+-reducing activity [9] | further results
COc1ccc(O)c(C(C)(C)C)c1 [BHA, Butylated hydroxyanisole] | 10.10 | 5.07 | 11.99 | – | – | –
Cc1cc(C(C)(C)C)c(O)c(C(C)(C)C)c1 [BHT, butylated hydroxytoluene] | 25.95 | 6.99 | 8.72 | – | – | –
O=C(/C=C/c1ccc(O)c(O)c1)OCCc1ccccc1 [CAPE, caffeic acid phenethyl ester] | – | – | – | 2.509 | – | –
O=c1oc2cc(O)ccc2c2oc3cc(O)ccc3c12 [Coumestrol, 3,9-dihydroxy-6-benzofuran [3,2-c] chromenone] | 25.95 | 12.24 | 12.81 | – | – | IC50 [5]: 44 nM; Ki [5]: 23.8 ± 2.17 nM; IC50 [6]: 21.1 nM; IC50 [7]: 27.5 nM; IC50 [8]: 18.2 nM; Ki ([8]; Lineweaver–Burk): 21.7 ± 2.23 nM
Cc1c(C)c2c(c(C)c1O)CCC(C)(C(=O)O)O2 (stereo not drawn) [Trolox] | 7.059 | 6.16 | 4.33 | – | – | –
O=C(O)/C=C/c1ccc(O)c(O)c1 [caffeic acid] | – | – | – | 2.769 | – | –
C=CCc1ccc(O)c(OC)c1 [eugenol] | – | – | – | – | 0.762 | –
CCCCCc1cc(O)cc(O)c1 [olivetol] | – | – | – | – | 1.314 | Ki for AChE [10, 11]: 5.13 µg/mL
O=C1c2c(O)cc(O)cc2OC(c2ccc(O)c(O)c2)C1O (stereo not drawn) [taxifolin] | – | – | – | – | 0.750 | Ki [10, 11]: 54900 nM
O=c1[nH]c(=O)c2[nH]c(=O)[nH]c2[nH]1 [uric acid] | – | – | – | 0.432 | – | –
CC(=O)c1c(O)c(C)c(O)c2c1OC1=CC(=O)C(C(C)=O)C(=O)C12C (stereo not drawn) [usnic acid] | – | – | – | 0.278 | 0.277 | Ki ([10]; ref 3 (usnic acid), 58 (CAPE)): 3.39 nM
Cc1c(C)c2c(c(C)c1O)CC[C@@](C)(CCC[C@H](C)CCC[C@H](C)CCCC(C)C)O2 [α-Tocopherol] | 11.31 | 8.37 | 7.11 | – | – | –
tannic acid | – | – | – | 2.428 | – | –

Source: publication PMC9143817 (Molecules, 2022)
